Values quoted from earlier work in patent US12472143B2, “Blend compositions for oral administration as a rapidly dissolving powder and/or suspension” (MARENDA PHARMACEUTICALS LLC, priority 2017, dated 2025).

Structure (SMILES): CC(C)Cc1ccc(C(C)C(=O)O)cc1 (stereo not shown) [Ibuprofen]
- solubility in water: sparingly soluble
